According to patent US20100035822A1, “PROLINE-RICH PEPTIDES, PHARMACEUTICAL COMPOSITION, USE OF ONE OR MORE PEPTIDES AND METHOD OF TREATMENT” (priority 2006, published 2010):

Test system: total kidney protein extract
Experiment: NO production in total kidney protein extract
Assay type: biochemical, mouse
Settings: kidney homogenate of mice; 0.01 to 50 μmol, preferentially 0.5 to 2 μmol peptide
Experimental: The release of NO was evaluated by means of nitrate and nitrit accumulation in total kidney protein extract of male Swiss mice weighing 30-35 g, as described by Wu and Yen (Wu C C and Yen M H. Higher level of plasma nitric oxide in spontaneously hypertensive rats. Am. J. Hypertension 12: 476-482, 1999). Animals were subjected to perfusion with 0.9% saline solution containing heparin (1:1000). Kidneys were collected and homogenized in cold 50 mM Tris-HCl, 0.1 mM EDTA, 0.1 mM EGTA, 12 mM β-mercaptoethanol, and 1 mM phenylmethylsulphonyl fluoride, pH 7.4 buffer in a homogenizer (Polytron PT MR 3000, Kinematic AG, Littau). Homogenates were incubated with 10 nM, 1 μM, or 10 μM peptide SEQ ID NO 8 in a final volume of 500 μl for 1 hour. Trichloracetic acid (1%) was added at 4° C., and after 20 minutes the mixture was centrifuged at 13.000 g for 7 min at 4° C. A saturated solution of vanadium chloride (VCl3) in 1 M HCl at 90° C. was added to the supernatant, and the concentration of NO was determined by gas chemiluminescence by means of the reaction of NO with ozone in a NO analyzer (NOA^TM280; Sievers Inc.). The concentration of nitrate was determined using a standard curve of NaNO3 and the Bag software 2.2 (Sievers Instruments Inc.).

Question: Which “increase of nitrite production (generated from NO)” value does the source give for <ENWPHPQIPP [SEQ ID NO 8] here?
Answer: 5 fold
